Results published in patent US5306620A, “Antibodies that bind to a ligand-induced binding site on integrin and induce integrin activation” (The Scripps Research Institute, priority 1990, dated 1994).
Residues, ends and D or L forms follow the SMILES beside them.

Experiments:
[1] = molecular target: T1, GPIIb-IIIa on platelets (Homo sapiens, UniProt P05106+P08514); test: 125I-anti-LIBS1 binding to washed platelets with peptide ligands; conditions: peptide 0.8 mM; stimulated and unstimulated platelets
T1 construct: endogenous in cells; host or cells: platelets
Protocol: FIG. 2 illustrates anti-LIBS1 binding to platelets expressing a cryptic antigenic determinant as described in Example 5. Varied concentrations of ^125 I-anti-LIBS1 were bound at 37 C. for 30 minutes to gel-filtered platelets in the presence of no peptide (inverted triangle), 0.8 mM GRGESP (squares), 0.8 mM GRGDSP (triangles) or GRGDSP and 10 uM ADP (circles). Bound radioactivity was separated from free by spinning the platelets through a layer of sucrose.
Washed platelets were isolated as described in Example 1A, and were resuspended in 2 ml of calcium-free Tyrode's buffer (0.13 M NaCl, 0.0026 M KCl 0.002M MgCl2. 6H2 O, 5 mM Hepes, 0.012 M NaHCO3, pH 7.2) which was first treated by admixture with Chelex 100 (200-400 mesh sodium form, Bio-Rad Laboratories, Richmond, Calif.), maintained to complex any divalent cations present in the Tyrode's buffer and filtered to remove the complexed divalent cations from the buffer. The platelet suspension was then applied to a Sepharose CL2B column (40 ml total bed volume, Pharmacia, Inc., Piscataway, N.J.) equilibrated with the same Tyrode's buffer. […] The label containing immunoreaction products were then separated from non-bound ^125 I-labeled antibody by centrifugation of the platelet aliquot through a sucrose cushion as described in Example 4, and the platelet-associated radioactivity was determined as before.

[2] = molecular target: T2, αIIb β3 on A5 cells (Homo sapiens, UniProt P05106+P08514); test: Binding of fibrinogen-coated fluorescent beads to A5 cells; assay type: cell-based; conditions: 2 mM peptide
T2 construct: expressed in transfected cells
Protocol: Immobilized Fg was prepared by coating […] fluorescent latex beads (Fluoricon Fluorescent Particles, Baxter, McGraw Park, Ill.). These beads were prepared by incubating 1 mg of purified Fg with 650 ul of Fluoricon beads for 1 hour at room temperature. The beads were pelleted, resuspended in 1 ml of 30 mM Tris pH 7.4, 170 mM NaCl and 1% BSA, and stored at 4 degrees until ready for use. The binding of these particles to transfected cells was assessed by incubating 5×10^5 cells with 25 ul of beads in the presence or absence of polypeptide inhibitors for 30 minutes at room temperature. The solution was layered over a 6% BSA cushion, spun 5 minutes in a microfuge and the pelleted cells resuspended in 500 ul of Tyrodes and subjected to FACS analysis as described in Example 7.

[3] = molecular target: T2, αIIb β3 on A5 cells; test: Soluble 125I-fibrinogen binding to A5 cells; assay type: cell-based
Protocol: FIG. 4 illustrates the equilibrium binding of soluble fibrinogen (Fg) to Ab-62 stimulated (activated) A5 cells when measured as in Example 10. A5 cells at a concentration of 10^6 per ml were admixed with 6 uM of Sepharose-purified AB-62 and maintained at 22 C. for 30 minutes to activate the integrin. Iodinated Fg was then admixed in varying concentrations from 0.01 to 1 nM. After a 60 minute maintenance period, the bound ligand was separated from free ligand by centrifugation through 0.3 ml of 20% sucrose. The amount of radiolabelled ligand associated with the cell pellet was determined by gamma detection. Saturable binding was measured in three different experiments and plotted versus the input Fg concentration to obtain an averaged profile. A Scatchard replot of the binding data was made and is shown in the insert.
An independent measure of integrin activation was made by detecting the ability of a cell containing the integrin to bind soluble fibrinogen (Fg) that had been labelled with ^125 I. Fg was isolated and labelled with ^125 I by standard methods as described by Marguerie et al., J. Biol. Chem., 255:154-161 (1980) to form ^125 I-Fg. Thereafter, the binding of ^125 I-Fg to transfected cells was assayed as described previously for platelets [Marguerie et al., J. Biol. Chem., 255:154-161 (1980)]. Binding was initiated by the addition of cells to radiolabelled Fg and incubation at 37 degrees for 30 minutes. Bound ligand was separated from free ligand by centrifugation through 0.3 ml of 20% sucrose and the amount of radiolabelled ligand associated with the cell pellet determined by gamma detection.
Background binding in this assay detected about 30,000 molecules of Fg bound per integrin bearing cell, whereas maximum Ab-62 stimulated A5 cells bound about 95,000 molecules of Fg per cell.
Equilibrium binding of soluble Fg to Ab-62 stimulated (activated) A5 cells was carried out to better characterize Fg binding. […] A5 cells (10^6 per ml) were incubated with 6 uM Sepharose-purified Ab-62 for 30 minutes at 22 C. to activate the integrin. Thereafter ^125 I-Fg was admixed in varying concentrations from 0.01 to 1 nM. After 60 minutes, bound Fg was measured as described above after centrifugation of the cells through sucrose.
Saturable binding was measured in three different experiments and plotted versus the input Fg concentration to obtain average data which is shown in FIG. 4. A Scatchard replot of the binding data was also made and is shown in the inset to FIG. 4. The binding of the various concentrations of Fg to activated A5 cells at steady state was analyzed by use of the "Ligand" computer program. […] There was day to day variation in the quantity of αIIb β3 expressed as measured by the binding of the 2G12 antibody (150,000 to 440,000 sites/cell) as well as in the number of Fg receptors (138,000 to 360,000 sites/cell). The ratio of Fg receptors to αIIb β3 expressed per cell on a given day was 0.83±0.05, thus virtually all of the recombinant αIIb β3 was functional with respect to Fg binding.

[4] = molecular target: T3, solubilized αIIb β3 from platelets (Homo sapiens, UniProt P05106+P08514); test: Solution phase assay: 125I-Fg binding to solubilized αIIb β3; assay type: biochemical
T3 construct: αIIb β3 was solubilized from platelets; endogenous in cells; host or cells: human platelets, octylglucoside lysate
Protocol: To determine if activating antibodies could activate αIIb β3 extracted away f rom the membrane milieu, the activating capacity to stimulate Fg binding in a solution phase was assayed. In this assay, αIIb β3 was solubilized from platelets, incubated in the presence or absence of activating monoclonal antibodies, and then bound to microtiter plates coated with a non-activating monoclonal anti β3 antibody.
The platelet pellet was resuspended and solubilized in ice cold 10 mM Hepes containing 150 mM NaCl, 50 mM octyl-B-D-glucoypyranoside (Calbiochem, La Jolla, Calif.) 1 mm PMSF, 50 ng/ml PGE, 1 mM CaCl2, 1 mM MgCl2, 50 uM leupeptin and 1 mg/ml N-ethylmaleimide (Sigma, St. Louis, Mo.) and centrifuged at 100,000 g for 30 minutes. […] The microtiter wells were incubated at 4 C. overnight, washed twice with a modified Tyrodes-Hepes buffer (2.5 mM Hepes, 150 mM NaCl, 2.5 mM KCl, 1 mM MgCl2, 12 mM NaHCO3, 5.5 mM D-glucose and 1 mg/ml BSA, pH 7.4) containing 50 MM octyl-B-D-glucopyranoside and 0.1 uM activating monoclonal antibody and then twice in Tyrodes-Hepes buffer only to form αIIb β3 -bound microtiter wells. […] Bound radioactivity was counted after 2 washes with Tyrodes-Hepes buffer.

[5] = system: αIIb β3 and αv β3; test: Peptide ligand recognition by recombinant β3 integrins; assay type: binding, human

T2 sequence (P08514 32-887 limits assumed): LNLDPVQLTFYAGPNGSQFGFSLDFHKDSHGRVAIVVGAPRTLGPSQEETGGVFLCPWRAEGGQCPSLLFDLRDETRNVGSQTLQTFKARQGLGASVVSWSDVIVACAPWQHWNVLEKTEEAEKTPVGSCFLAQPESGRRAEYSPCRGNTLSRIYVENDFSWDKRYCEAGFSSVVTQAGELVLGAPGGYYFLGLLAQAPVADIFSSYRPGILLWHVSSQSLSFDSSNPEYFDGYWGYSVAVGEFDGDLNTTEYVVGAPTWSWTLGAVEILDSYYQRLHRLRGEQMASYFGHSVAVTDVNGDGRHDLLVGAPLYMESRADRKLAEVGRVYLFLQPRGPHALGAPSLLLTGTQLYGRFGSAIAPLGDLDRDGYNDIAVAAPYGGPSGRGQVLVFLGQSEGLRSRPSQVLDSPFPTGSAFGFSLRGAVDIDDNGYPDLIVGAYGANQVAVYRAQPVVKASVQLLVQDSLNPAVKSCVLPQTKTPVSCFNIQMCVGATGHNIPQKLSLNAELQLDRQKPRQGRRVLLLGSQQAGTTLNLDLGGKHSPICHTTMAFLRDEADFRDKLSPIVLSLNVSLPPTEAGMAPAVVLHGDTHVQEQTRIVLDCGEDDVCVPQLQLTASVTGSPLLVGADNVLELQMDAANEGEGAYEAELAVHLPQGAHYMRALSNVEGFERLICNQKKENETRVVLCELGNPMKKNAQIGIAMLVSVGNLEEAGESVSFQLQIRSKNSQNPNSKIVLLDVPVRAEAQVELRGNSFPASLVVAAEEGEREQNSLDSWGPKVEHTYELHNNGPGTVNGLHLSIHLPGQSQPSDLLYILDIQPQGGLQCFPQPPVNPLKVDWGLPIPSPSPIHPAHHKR
T2 sequence (P08514 891-1039 partner limits assumed): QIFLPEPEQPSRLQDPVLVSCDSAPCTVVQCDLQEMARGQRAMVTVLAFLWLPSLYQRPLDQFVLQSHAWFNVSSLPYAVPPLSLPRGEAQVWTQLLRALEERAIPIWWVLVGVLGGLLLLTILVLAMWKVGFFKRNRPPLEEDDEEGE
T2 sequence (P05106 27-788): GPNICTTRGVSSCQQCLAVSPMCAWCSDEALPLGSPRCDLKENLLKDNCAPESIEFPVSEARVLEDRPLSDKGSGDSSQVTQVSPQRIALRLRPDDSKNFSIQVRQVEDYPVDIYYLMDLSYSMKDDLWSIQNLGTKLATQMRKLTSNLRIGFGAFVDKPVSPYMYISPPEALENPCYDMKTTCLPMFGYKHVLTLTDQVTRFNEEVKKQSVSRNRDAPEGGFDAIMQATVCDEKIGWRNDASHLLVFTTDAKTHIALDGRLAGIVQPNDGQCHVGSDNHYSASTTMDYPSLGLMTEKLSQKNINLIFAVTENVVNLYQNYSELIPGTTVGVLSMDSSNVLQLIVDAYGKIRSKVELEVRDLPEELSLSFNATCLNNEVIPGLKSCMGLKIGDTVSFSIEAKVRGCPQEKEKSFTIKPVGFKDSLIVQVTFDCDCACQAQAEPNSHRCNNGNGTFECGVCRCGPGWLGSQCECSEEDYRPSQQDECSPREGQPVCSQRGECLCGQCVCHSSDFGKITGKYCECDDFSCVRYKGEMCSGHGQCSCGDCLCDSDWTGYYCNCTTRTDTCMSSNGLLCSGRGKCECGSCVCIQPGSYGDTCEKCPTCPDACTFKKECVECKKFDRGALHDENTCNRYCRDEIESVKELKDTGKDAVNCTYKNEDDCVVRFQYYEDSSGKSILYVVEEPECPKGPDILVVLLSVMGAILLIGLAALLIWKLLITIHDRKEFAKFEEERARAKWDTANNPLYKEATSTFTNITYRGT
T3 sequence (P08514 32-887 limits assumed): as the sequence (P08514 32-887 limits assumed) above
T3 sequence (P08514 891-1039 partner limits assumed): as the sequence (P08514 891-1039 partner limits assumed) above
T3 sequence (P05106 27-788): as the sequence (P05106 27-788) above
T1 sequence (P08514 32-887 limits assumed): as the sequence (P08514 32-887 limits assumed) above
T1 sequence (P08514 891-1039 partner limits assumed): as the sequence (P08514 891-1039 partner limits assumed) above
T1 sequence (P05106 27-788): as the sequence (P05106 27-788) above

N=C(N)NCCC[C@H](NC(=O)CN)C(=O)NCC(=O)N[C@@H](CC(=O)O)C(=O)N[C@@H](CO)C(=O)N1CCC[C@H]1C(=O)O [GRGDSP, Gly-Arg-Gly-Asp-Ser-Pro]
induction of LIBS1 cryptic antigenic determinant on platelets by peptide ligand [1]: will express a LIBS1 cryptic antigenic determinant
adherence of A5 cells to Fg-coated microspheres [2]: inhibited
inhibition of soluble 125I-Fg binding to activated A5 cells [3]: inhibited
inhibition of Fg binding to stimulated captured receptor [4]: inhibition

CC(C)C[C@H](N)C(=O)NCC(=O)NCC(=O)N[C@@H](C)C(=O)N[C@@H](CCCCN)C(=O)N[C@@H](CCC(N)=O)C(=O)N[C@@H](C)C(=O)NCC(=O)N[C@@H](CC(=O)O)C(=O)N[C@H](C(=O)O)C(C)C [Mab L10, LGGAKQAGDV] (H-LGGAKQAGDV-OH)
recognition of peptide by αIIb β3 versus αv β3 [5]: recognized better by αIIb β3 than by αv β3
